# Test results reported in patent US20140066488A1, “Inhibitors of Memapsin 2 Cleavage for the Treatment of Alzheimer's Disease” (Purdue Research Foundation, priority 2012, published 2014).
# pIC50, pKi: −log10 of the molar value. Where two headings read alike, the source gives them in different places.
# Columns and labels:
# [1] = biological target: T1, recombinant BACE 2 (Homo sapiens, UniProt Q9Y5Z0); assay: enzyme inhibition of recombinant BACE 2; format: biochemical; conditions: for selectivity BACE 2/BACE 1: ratio of Ki values; for Ki: recombinant BACE 2
# T1 sequence (Q9Y5Z0 63-518): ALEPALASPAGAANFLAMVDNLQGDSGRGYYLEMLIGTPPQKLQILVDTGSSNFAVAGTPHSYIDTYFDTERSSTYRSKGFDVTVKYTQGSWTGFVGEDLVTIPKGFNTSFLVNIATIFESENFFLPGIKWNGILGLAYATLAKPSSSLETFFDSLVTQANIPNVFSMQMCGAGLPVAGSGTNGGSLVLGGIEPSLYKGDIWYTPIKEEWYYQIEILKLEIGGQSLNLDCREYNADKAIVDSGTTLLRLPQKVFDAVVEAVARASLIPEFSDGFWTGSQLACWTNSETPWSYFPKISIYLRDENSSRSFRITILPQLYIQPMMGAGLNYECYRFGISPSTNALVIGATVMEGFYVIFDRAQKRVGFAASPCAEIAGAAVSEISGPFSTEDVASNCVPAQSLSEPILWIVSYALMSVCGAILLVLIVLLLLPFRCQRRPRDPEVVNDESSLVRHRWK
# [2] = biological target: human CD (cathepsin D) (Homo sapiens, UniProt P07339); assay: enzyme inhibition of human cathepsin D (CD); format: biochemical; conditions: for Ki: human CD; for selectivity CD/BACE 1: ratio of Ki values; for selectivity against CD: BACE 1 over CD
# [3] = biological target: β-secretase in neuroblastoma cells (Homo sapiens, UniProt P56817); conditions: for IC50: read-out: IC50 (nM), cellular, determined in neuroblastoma cells
# From the text: The inventors have also evaluated the cellular inhibition of β-secretase in neuroblastoma cells.
# [4] = biological target: recombinant β-secretase (BACE 1, memapsin 2) (Homo sapiens, UniProt P56817); assay: BACE 1 enzyme inhibitory assay against recombinant β-secretase; conditions: for Ki: read-out: Ki (nM) BACE 1; for Ki / BACE 1 inhibitory activity (in words): recombinant β-secretase
# recombinant β-secretase (BACE 1, memapsin 2), sequence (P56817 46-501): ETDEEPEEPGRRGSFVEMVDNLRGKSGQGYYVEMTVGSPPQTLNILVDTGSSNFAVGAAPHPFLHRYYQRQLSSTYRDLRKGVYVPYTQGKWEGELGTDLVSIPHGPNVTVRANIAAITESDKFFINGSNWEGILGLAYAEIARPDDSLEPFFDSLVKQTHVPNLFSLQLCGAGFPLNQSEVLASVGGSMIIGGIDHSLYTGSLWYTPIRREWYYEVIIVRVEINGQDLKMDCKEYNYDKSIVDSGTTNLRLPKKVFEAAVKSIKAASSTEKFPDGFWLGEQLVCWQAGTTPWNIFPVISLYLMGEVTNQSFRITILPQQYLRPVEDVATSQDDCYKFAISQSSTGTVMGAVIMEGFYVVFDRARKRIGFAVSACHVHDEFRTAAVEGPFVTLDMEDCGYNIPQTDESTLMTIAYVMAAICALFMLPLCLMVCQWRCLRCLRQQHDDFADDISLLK
# Method: The BACE 1 inhibitory activity of synthetic inhibitors 4-9 was determined against recombinant β-secretase using previously reported assay protocols (Ermolieff et al., 2000).
# β-secretase in neuroblastoma cells, sequence (P56817 46-501): as above
# human CD (cathepsin D), sequence (P07339 65-412): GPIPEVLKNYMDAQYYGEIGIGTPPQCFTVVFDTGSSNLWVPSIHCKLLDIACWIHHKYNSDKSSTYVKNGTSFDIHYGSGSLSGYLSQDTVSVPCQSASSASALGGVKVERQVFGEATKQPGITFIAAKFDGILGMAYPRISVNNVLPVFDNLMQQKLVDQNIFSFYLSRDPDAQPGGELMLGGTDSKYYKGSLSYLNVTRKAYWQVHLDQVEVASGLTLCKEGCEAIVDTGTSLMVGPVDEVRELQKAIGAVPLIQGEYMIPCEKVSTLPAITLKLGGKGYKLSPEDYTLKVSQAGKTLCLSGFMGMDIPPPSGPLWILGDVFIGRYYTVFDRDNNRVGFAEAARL
Structure (SMILES),selectivity against CD (in words) [2],Ki [2] [nM],selectivity CD/BACE 1 [2],IC50 [3] [nM],Ki [4] [nM],BACE 1 inhibitory activity (in words) [4],other results
CC[C@H](NC[C@H](Cc1ccccc1)NC(=O)c1cc(C(=O)N[C@H](C)c2ccccc2)cc(N(C)S(C)(=O)=O)c1)C(=O)NCC(C)C [Inhibitor 4],marginal selectivity,8260,>300,9.5,27,–,selectivity against BACE 2 (in words) [1]: marginal selectivity; selectivity against BACE 2 ([1]; BACE 1 over BACE 2): > 50 fold; selectivity BACE 2/BACE 1 [1]: >55; Ki [1]: 1450 nM
CC(C)CN(C)C(=O)[C@@H](NC[C@H](Cc1ccccc1)NC(=O)c1cc(C(=O)N[C@H](C)c2ccccc2)cc(N(C)S(C)(=O)=O)c1)[C@H](C)O [Inhibitor 7],–,–,–,–,–,abolished all BACE 1 inhibitory activity,pKi [4]: < 6.00
CO[C@@H](C)[C@H](NC[C@H](Cc1ccccc1)NC(=O)c1cc(C(=O)N[C@H](C)c2ccccc2)cc(N(C)S(C)(=O)=O)c1)C(=O)NCC(C)C [Inhibitor 8],–,–,–,–,25,substantial reduction in inhibitory potency,–
CC(C)CNC[C@@H](NC[C@H](Cc1ccccc1)NC(=O)c1cc(C(=O)N[C@H](C)c2ccccc2)cc(N(C)S(C)(=O)=O)c1)[C@H](C)O [Inhibitor 9],–,–,–,–,–,total loss in potency,–
CCC[C@H](O)[C@H](NC[C@H](Cc1ccccc1)NC(=O)c1cc2c3c(c1)c(CC)cn3CCS(=O)(=O)N2C)C(=O)NCC(C)C [Inhibitor 19],improvement in CD selectivity,690,>1700,–,0.4,–,"improvement in the potency ([4]; BACE 1 Ki, inhibitor 19 versus inhibitor 18): around 18 fold"
CCC[C@H](O)[C@H](NC[C@H](Cc1ccccc1)NC(=O)c1cc2c3c(c1)c(CC)cn3CC(C)(C)S(=O)(=O)N2C)C(=O)NCC(C)C [Inhibitor 20],excellent selectivity,530,>14700,15,0.036,–,"selectivity against BACE 2 (in words) [1]: good selectivity; selectivity BACE 2/BACE 1 [1]: >300; Ki [1]: 11 nM; potency enhancement ([4]; BACE 1 Ki, over unsubstituted inhibitor 19): > 10 fold"

# More lines, main results first:
selectivity against CD (in words) [2],Ki [2] [nM],selectivity CD/BACE 1 [2],IC50 [3] [nM],Ki [4] [nM],BACE 1 inhibitory activity (in words) [4],Structure (SMILES),other results
–,7100,>970,22,7.3,–,CCc1cn2c3c(cc(C(=O)N[C@H](CN[C@H](C(=O)NCC(C)C)[C@H](C)O)Cc4ccccc4)cc13)N(C)S(=O)(=O)CC2 [Inhibitor 18],selectivity against CD [2]: over 970 fold; ratio of cell inhibitory to enzyme inhibitory efficacy ([3]; cellular IC50 / BACE 1 Ki): 3
–,–,–,–,7.2,impressive potency,CCc1cn2c3c(cc(C(=O)N[C@H](CN[C@H](C(=O)NCC(C)C)[C@H](C)O)Cc4ccccc4)cc13)N(C)S(=O)(=O)C1(CC1)C2 [Inhibitor 21],–
–,2000,>4200,–,–,impressive potency,CCC[C@H](O)[C@H](NC[C@H](Cc1ccccc1)NC(=O)c1cc2c3c(c1)c(CC)cn3CC1(CC1)S(=O)(=O)N2C)C(=O)NCC(C)C [Inhibitor 22],selectivity against CD [2]: > 4200 fold; pIC50 [3]: 7.85; pKi [4]: 9.33
